Laboratory results as given in publication PMC9841524, “Structure-Based Rational Design of Small α-Helical Peptides with Broad-Spectrum Activity against Multidrug-Resistant Pathogens” (Journal of Medicinal Chemistry, 2022).
Values after ≈ are worked out from the molar mass of the structure shown. Like-named read-outs stand apart in the source and are kept apart here. Where a SMILES comes first, the peptide text is derived from it. Bridges are numbered along the chain shown (N, C = ends). [ ]: non-standard residue; d: D form. The star is where a group is joined. X1 = CC[C@H](C)CCCCC(=O)*; Dab = NCC[C@H](N)C(=O)O

Assays:
E. faecalis (ATCC 51575) = test: microbe, parasite or virus in culture; conditions: Enterococcus faecalis, ATCC51575, 24 h, read-out: MIC, E. faecalis (ATCC 51575)
Procedure: (§1) Description of the characteristics and growth conditions of various bacterial strains used in the study are provided in the Supporting Information (Table S3). Antibacterial susceptibility testing was carried out using a standard microtiter dilution method recommended by the clinical and laboratory standard institute (CLSI) and measured as a minimum inhibitory concentration (MIC), the lowest peptide concentration that inhibited bacterial growth. Briefly, the overnight grown cultures in the recommended broth for each bacterial strain were diluted in cation-adjusted Mueller Hinton Broth (CAMHB) to give an inoculum of 10^6 colony-forming units (CFU)/mL. A 2-fold serially diluted test peptide solution (100 μL) was added to the microtiter plates. After adding bacterial suspension (100 μL), the plates were incubated at 37 °C for 24 h, and the MICs were determined. The same protocol was used to determine the MICs in the presence of salts and serum except using the media supplemented with various cationic salts (150 mM NaCl, 4.5 mM KCl, 6 mM NH4Cl, 1 mM MgCl2, and 2 mM CaCl2) or 25% FBS. The data was acquired from three independent assays performed in triplicate.
(§2) The bacterial strains employed in this study were obtained from the American Type Culture Collection (ATCC). Each strain was propagated as recommended by the ATCC, and each strain was stored as a frozen glycerol stock at -80°C. A bacterial colony was grown on the appropriate agar as indicated in Table S1 and was used to inoculate the appropriate broth. The culture was incubated at the appropriate conditions, as mentioned in Table S1. Following the incubation, the culture was diluted to an optical density 625 nm (OD625) of 0.1 in cation adjusted Mueller Hinton Broth (CAMHB), which is equivalent to 1 × 10^8 CFU/mL. The culture was further diluted to 1 × 10^6 CFU/mL, which was used to conduct the MIC determination assay. For the S. pneumoniae strains, CAMHB + 2.5% lysed horse blood was required for the assay. The strains with their […]
(§3) Table S3. Description of the characteristics and growth conditions of various bacterial strains

E. faecium (ATCC 27270) = test: microbe, parasite or virus in culture; conditions: Enterococcus faecium, ATCC27270, 24 h, read-out: MIC, E. faecium (ATCC 27270)
Procedure: as §1, §2, §3

E. faecium (ATCC 700221) = test: microbe, parasite or virus in culture; conditions: Enterococcus faecium, ATCC700221, 24 h, read-out: MIC, E. faecium (ATCC 700221)
Procedure: as §1, §2, §3

E. coli (ATCC 25922) = conditions: for MIC, E. coli (ATCC 25922): broth microdilution (CLSI), CAMHB, 37 °C, 24 h
How it was run: (§4)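 In this CLSI-recommended assay, peptides were serially diluted twofold and combined with bacteria at 10^6 CFU/mL in cation-adjusted Mueller Hinton Broth.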

[1] = test system: P. aeruginosa (ATCC BAA-1744); conditions: Gram-negative, resistant strain (marked a; imipenem resistant in Table S3); CLSI microdilution, CAMHB, 37 °C, 24 h; highest MIC of three independent experiments in triplicate
How it was run: as §4

E. coli (ATCC BAA-2452) [2] = conditions: Gram-negative, NDM-1; CLSI microdilution, CAMHB, 37 °C, 24 h; highest MIC of three independent experiments in triplicate
How it was run: as §4

[3] = test system: K. pneumonia (ATCC BAA-2470); conditions: Gram-negative, carbapenem-resistant; CLSI microdilution, CAMHB, 37 °C, 24 h; highest MIC of three independent experiments in triplicate
How it was run: as §4

[4] = test system: Klebsiella pneumonia (ATCC 13883); conditions: Gram-negative; CLSI microdilution, CAMHB, 37 °C, 24 h; highest MIC of three independent experiments in triplicate
How it was run: as §4

[5] = test system: P. aeruginosa (ATCC 10145); conditions: Gram-negative; CLSI microdilution, CAMHB, 37 °C, 24 h; highest MIC of three independent experiments in triplicate
How it was run: as §4

[6] = test system: A. baumannii (ATCC BAA1605); conditions: Gram-negative, footnote e ciprofloxacin (MDR in Table S3); CLSI microdilution, CAMHB, 37 °C, 24 h; highest MIC of three independent experiments in triplicate
How it was run: as §4

E. coli (ATCC BAA-2452) [7] = test: Flow cytometric analysis of PI-stained cells; type: cell-based; conditions: MIC and 4 × MIC, 1 h, flow cytometry
Procedure: The flow cytometric analysis was performed by using MRSA (ATCC BAA-1556) and E. coli (ATCC BAA-2452) cultures grown to the mid log phase in Mueller Hinton broth (HIMEDIA). Before treatment, bacterial cells were washed thrice with buffer (10 mM Tris, pH 7.4) and resuspended in the same buffer to obtain 10^7 CFU/mL bacterial suspensions. Test peptides (8a and 8b) and the standard antibiotics (daptomycin and polymyxin B) at MIC and 4 × MIC were incubated with bacterial suspension for 1 h. Following the treatment with test peptides, the cells were pelleted by centrifugation at 3000g for 15 min in a microcentrifuge. The supernatant was decanted, and the cells were washed with PBS several times and then incubated with PI ([…]) in the dark for 15 min at 37 °C. FACS analysis of the stained bacterial cells was performed using a FACscan flow cytometer (BD Accuri C6, BD Biosciences, California, USA), and data were analyzed by using Cell Quest software.

E. coli (ATCC BAA-2452) [8] = test: Bactericidal kinetic assay; type: cell-based
Procedure: The time course of bacterial killing was studied by the exposure of overnight grown cultures of MRSA (ATCC BAA-1556) and E. coli (ATCC BAA-2452) to 8a and 8b at the MIC and 4× the MIC in Muller Hinton media. Bacterial cells (2 × 10^6 CFU/mL) were treated with peptides and standard antibiotics and incubated at 37 °C. Aliquots were withdrawn at a 30 min time interval for 4 h and plated on the agar plate to determine the number of viable bacterial colonies. Data were obtained from two independent experiments performed in triplicate.

[9] = test system: K. pneumoniae (ATCCBAA-1705); test: MIC, standard microtiter dilution (CLSI); type: cell-based, Klebsiella pneumoniae; conditions: broth microdilution (CLSI), CAMHB, 37 °C, 24 h
How it was run: as §4

[10] = test system: P. aeruginosa (ATCC 27883); test: MIC, standard microtiter dilution (CLSI); type: cell-based, Pseudomonas aeruginosa; conditions: broth microdilution (CLSI), CAMHB, 37 °C, 24 h
How it was run: as §4

[11] = 10^6 CFU/mL, highest MIC of three independent experiments in triplicate

Compound: CN[C@H](CC(C)C)C(=O)N[C@H]1C(=O)N[C@@H](CC(N)=O)C(=O)N[C@H]2C(=O)N[C@H]3C(=O)N[C@H](C(=O)N[C@H](C(=O)O)c4cc(O)cc(O)c4-c4cc3ccc4O)[C@H](O)c3ccc(c(Cl)c3)Oc3cc2cc(c3O[C@@H]2O[C@H](CO)[C@@H](O)[C@H](O)[C@H]2O[C@H]2C[C@](C)(N)[C@H](O)[C@H](C)O2)Oc2ccc(cc2Cl)[C@H]1O [vancomycin, reference compound]
- MIC (E. faecalis (ATCC 51575)): > 50 µg/mL
- MIC (E. faecium (ATCC 27270)): 1.5 µg/mL (≈ 1.04 µM)
- MIC (E. faecium (ATCC 700221)): > 50 µg/mL

Compound: CC[C@H](C)CCCCC(=O)N[C@@H](CCN)C(=O)N[C@H](C(=O)N[C@@H](CCN)C(=O)N[C@H]1CCNC(=O)[C@H]([C@@H](C)O)NC(=O)[C@H](CCN)NC(=O)[C@H](CCN)NC(=O)[C@H](CC(C)C)NC(=O)[C@@H](Cc2ccccc2)NC(=O)[C@H](CCN)NC1=O)[C@@H](C)O [polymyxin B, reference compound] (X1-[Dab]T[Dab][Dab][Dab][dF]L[Dab][Dab]T; lactam 4-C (inferred); N-terminus assumed)
- MIC, E. coli (ATCC 25922), Control (E. coli (ATCC 25922); MH media without salt ions or serum, three independent experiments in triplicate): 0.7 µg/mL
- MIC, E. coli (ATCC 25922) (E. coli (ATCC 25922); [11]): 0.7 µg/mL
- MIC, E. coli (ATCC 25922), MgCl2 (E. coli (ATCC 25922); media with 1 mM MgCl2, three independent experiments in triplicate): 1.5 µg/mL (≈ 1.25 µM)
- MIC, E. coli (ATCC 25922), CaCl2 (E. coli (ATCC 25922); media with 2 mM CaCl2, three independent experiments in triplicate): 0.7 µg/mL (≈ 0.582 µM)
- MIC, E. coli (ATCC 25922), KCl (E. coli (ATCC 25922); media with 4.5 mM KCl, three independent experiments in triplicate): 0.7 µg/mL (≈ 0.582 µM)
- MIC, E. coli (ATCC 25922), NH4Cl (E. coli (ATCC 25922); media with 6 mM NH4Cl, three independent experiments in triplicate): 0.7 µg/mL (≈ 0.582 µM)
- MIC, E. coli (ATCC 25922), NaCl (E. coli (ATCC 25922); media with 150 mM NaCl, three independent experiments in triplicate): 0.7 µg/mL (≈ 0.582 µM)
- MIC, E. coli (ATCC 25922), FBS (25%) (E. coli (ATCC 25922); media with 25% fetal bovine serum, three independent experiments in triplicate): 3.1 µg/mL (≈ 2.58 µM)
- MIC, E. coli (ATCC 25922) (E. coli (ATCC 25922); value in parentheses (μM)): 0.58 µM
- MIC, P. aeruginosa (ATCC BAA-1744) [1]: 0.7 µg/mL
- MIC, E. coli (ATCC BAA-2452) (E. coli (ATCC BAA-2452) [2]): 0.7 µg/mL
- MIC, K. pneumonia (ATCC BAA-2470) [3]: 1.5 µg/mL
- MIC, Klebsiella pneumonia (ATCC 13883) [4]: 6.2 µg/mL
- MIC, P. aeruginosa (ATCC 10145) [5]: 0.7 µg/mL
- MIC, A. baumannii (ATCC BAA1605) [6]: 0.7 µg/mL
- PI-stained population of E. coli cells (E. coli (ATCC BAA-2452) [7]): did not significantly increase
- time to complete eradication of E. coli cells at 4 × MIC (E. coli (ATCC BAA-2452) [8]): 2.5 h
- MIC, K. pneumoniae (ATCCBAA-1705) [9, 11]: 0.7 µg/mL
- MIC, K. pneumoniae (ATCCBAA-1705) ([9]; value in parentheses (μM)): 0.58 µM
- MIC, P. aeruginosa (ATCC 27883) [10, 11]: 1.5 µg/mL
- MIC, P. aeruginosa (ATCC 27883) ([10]; value in parentheses (μM)): 1.25 µM
